From ChEMBL document CHEMBL3991601, “The target landscape of clinical kinase drugs” (Science, 2017)
Where a name gives a salt, the structure may show the parent alone. Active and inactive are the calls of the source.

What was measured:
[1] = molecular target: T1, Interleukin-1 receptor-associated kinase 3 (Homo sapiens, UniProt Q9Y616)
T1 sequence (Q9Y616 whole entry): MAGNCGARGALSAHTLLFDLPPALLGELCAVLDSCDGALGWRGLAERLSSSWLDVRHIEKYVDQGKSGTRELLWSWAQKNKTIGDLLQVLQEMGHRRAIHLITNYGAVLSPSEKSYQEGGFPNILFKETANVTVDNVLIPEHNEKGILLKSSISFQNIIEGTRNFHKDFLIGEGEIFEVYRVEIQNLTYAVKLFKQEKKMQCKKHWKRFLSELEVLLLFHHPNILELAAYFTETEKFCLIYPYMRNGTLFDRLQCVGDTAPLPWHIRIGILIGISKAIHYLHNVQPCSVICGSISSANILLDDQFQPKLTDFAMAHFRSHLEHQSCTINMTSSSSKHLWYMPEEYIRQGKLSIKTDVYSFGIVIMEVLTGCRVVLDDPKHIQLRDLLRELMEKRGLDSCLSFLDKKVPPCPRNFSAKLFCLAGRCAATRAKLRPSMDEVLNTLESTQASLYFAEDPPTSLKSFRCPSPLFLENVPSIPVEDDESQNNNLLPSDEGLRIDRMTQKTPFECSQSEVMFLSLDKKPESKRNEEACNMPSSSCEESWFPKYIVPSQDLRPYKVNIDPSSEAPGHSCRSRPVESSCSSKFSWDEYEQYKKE

[2] = molecular target: T2, NUAK family SNF1-like kinase 2 (Homo sapiens, UniProt Q9H093)
T2 sequence (Q9H093 whole entry): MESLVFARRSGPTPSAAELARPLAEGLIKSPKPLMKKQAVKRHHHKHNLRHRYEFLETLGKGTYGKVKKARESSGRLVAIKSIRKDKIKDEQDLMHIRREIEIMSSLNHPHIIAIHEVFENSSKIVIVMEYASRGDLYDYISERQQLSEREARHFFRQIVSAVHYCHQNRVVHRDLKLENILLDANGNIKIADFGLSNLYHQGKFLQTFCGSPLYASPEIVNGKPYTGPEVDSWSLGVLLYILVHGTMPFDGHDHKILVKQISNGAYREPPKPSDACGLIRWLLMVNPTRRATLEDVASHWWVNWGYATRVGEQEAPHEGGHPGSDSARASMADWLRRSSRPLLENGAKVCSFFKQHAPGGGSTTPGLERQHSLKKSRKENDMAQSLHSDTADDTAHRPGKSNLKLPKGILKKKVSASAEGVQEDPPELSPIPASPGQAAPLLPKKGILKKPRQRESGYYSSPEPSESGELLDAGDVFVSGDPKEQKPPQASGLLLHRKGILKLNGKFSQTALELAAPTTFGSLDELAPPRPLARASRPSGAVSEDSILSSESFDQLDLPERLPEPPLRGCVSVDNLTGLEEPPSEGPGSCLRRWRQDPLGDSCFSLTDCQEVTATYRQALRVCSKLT

[3] = molecular target: T3, ATP-dependent 6-phosphofructokinase, platelet type (Homo sapiens, UniProt Q01813)
T3 sequence (Q01813 whole entry): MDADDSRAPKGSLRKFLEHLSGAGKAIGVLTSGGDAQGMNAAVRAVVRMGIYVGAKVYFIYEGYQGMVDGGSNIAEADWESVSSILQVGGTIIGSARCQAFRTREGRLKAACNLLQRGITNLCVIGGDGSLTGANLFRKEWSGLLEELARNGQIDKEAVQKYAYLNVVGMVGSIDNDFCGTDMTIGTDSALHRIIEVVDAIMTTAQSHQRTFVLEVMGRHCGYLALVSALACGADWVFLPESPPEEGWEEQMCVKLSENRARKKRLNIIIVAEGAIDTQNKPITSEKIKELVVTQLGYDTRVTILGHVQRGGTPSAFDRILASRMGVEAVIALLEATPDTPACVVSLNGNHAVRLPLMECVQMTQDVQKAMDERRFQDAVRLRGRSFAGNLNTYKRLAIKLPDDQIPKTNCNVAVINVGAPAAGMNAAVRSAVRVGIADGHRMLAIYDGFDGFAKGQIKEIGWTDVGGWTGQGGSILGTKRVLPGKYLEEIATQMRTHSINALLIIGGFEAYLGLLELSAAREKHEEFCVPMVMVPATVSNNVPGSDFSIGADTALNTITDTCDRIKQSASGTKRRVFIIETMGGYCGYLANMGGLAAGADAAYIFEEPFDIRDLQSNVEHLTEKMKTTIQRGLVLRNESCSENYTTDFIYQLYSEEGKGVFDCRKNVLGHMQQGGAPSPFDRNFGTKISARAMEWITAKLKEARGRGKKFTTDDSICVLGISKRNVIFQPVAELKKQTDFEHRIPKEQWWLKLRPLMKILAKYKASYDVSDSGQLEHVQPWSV

[4] = molecular target: Ribosomal protein S6 kinase beta-1 (Homo sapiens, UniProt P23443)
[5] = molecular target: T4, Tyrosine-protein kinase Tec (Homo sapiens, UniProt P42680)
T4 sequence (P42680 whole entry): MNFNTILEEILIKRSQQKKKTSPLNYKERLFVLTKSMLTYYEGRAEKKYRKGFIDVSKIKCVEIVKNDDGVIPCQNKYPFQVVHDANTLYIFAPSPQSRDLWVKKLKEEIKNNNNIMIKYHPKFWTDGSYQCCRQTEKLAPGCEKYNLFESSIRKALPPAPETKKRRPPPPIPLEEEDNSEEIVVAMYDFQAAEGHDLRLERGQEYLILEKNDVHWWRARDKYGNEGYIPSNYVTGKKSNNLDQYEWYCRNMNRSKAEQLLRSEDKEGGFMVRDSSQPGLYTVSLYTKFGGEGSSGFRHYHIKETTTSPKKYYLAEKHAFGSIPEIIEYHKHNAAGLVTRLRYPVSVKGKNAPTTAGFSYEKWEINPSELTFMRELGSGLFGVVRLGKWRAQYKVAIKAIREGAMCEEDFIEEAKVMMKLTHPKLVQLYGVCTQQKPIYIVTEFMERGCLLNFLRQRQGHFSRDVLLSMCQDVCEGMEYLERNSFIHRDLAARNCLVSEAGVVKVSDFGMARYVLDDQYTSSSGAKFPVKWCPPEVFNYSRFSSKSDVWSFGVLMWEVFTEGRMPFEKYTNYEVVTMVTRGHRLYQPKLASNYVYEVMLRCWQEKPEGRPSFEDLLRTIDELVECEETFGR

[6] = molecular target: Non-receptor tyrosine-protein kinase TYK2 (Homo sapiens, UniProt P29597)
Note: in the data inactive means no Kd found up to 30 µM.

Chain of Non-receptor tyrosine-protein kinase TYK2 (P29597 whole entry): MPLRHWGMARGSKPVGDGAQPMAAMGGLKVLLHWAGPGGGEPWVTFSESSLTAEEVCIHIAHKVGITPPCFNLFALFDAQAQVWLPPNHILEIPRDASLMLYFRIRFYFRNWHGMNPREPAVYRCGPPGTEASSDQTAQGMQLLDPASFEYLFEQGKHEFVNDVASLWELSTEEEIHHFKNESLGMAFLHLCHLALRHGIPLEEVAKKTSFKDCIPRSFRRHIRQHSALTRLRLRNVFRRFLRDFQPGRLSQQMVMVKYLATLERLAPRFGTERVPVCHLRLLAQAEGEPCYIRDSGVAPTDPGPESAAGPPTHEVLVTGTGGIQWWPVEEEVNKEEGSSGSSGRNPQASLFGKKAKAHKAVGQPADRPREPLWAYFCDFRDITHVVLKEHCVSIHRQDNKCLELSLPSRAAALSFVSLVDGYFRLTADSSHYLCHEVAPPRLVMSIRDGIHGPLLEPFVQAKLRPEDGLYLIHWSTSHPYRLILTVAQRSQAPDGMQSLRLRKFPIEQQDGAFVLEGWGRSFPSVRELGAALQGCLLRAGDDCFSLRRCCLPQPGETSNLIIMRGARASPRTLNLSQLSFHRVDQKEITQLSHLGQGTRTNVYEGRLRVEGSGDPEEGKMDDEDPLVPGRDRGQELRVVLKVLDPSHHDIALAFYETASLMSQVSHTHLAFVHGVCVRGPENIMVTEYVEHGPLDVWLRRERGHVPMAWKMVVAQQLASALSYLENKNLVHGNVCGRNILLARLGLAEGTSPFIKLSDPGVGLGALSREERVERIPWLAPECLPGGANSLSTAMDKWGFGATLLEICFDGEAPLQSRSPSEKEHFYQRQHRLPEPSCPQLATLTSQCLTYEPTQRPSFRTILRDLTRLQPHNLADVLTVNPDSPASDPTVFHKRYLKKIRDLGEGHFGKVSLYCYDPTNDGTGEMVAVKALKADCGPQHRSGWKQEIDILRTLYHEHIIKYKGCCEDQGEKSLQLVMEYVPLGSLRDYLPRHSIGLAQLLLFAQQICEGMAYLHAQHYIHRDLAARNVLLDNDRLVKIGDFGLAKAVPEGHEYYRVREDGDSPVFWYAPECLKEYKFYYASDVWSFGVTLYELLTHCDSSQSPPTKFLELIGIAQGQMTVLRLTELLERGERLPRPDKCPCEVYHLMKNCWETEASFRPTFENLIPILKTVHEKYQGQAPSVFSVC
Chain of Ribosomal protein S6 kinase beta-1 (P23443 whole entry): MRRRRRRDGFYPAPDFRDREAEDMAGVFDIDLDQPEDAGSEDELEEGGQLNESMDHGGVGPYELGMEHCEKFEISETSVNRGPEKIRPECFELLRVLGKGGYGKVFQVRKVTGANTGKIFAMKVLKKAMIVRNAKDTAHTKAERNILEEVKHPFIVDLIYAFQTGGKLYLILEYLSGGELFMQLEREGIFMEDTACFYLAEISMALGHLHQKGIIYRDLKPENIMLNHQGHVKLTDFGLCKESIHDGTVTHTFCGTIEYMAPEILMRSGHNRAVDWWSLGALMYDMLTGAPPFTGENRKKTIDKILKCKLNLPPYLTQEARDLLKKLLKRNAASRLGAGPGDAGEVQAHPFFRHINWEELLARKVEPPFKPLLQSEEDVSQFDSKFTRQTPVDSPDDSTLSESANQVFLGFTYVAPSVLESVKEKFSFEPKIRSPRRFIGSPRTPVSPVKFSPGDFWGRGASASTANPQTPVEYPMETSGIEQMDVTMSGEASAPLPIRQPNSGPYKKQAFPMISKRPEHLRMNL

Compound: CN(C[C@@H]1COCCO1)S(=O)(=O)Nc1ccc2ccc3ncc(-c4cnn(C)c4)cc3c(=O)c2c1 [MK-2461]
- Kd [1]: 0.502 µM (active)
- Kd [2]: > 30 µM (inactive)
- Kd [3]: > 30 µM (inactive)
- Kd [4]: > 30 µM (inactive)
- Kd [5]: > 30 µM (inactive)
- Kd [6]: > 30 µM (inactive)

Compound: CN1C/C=C/CCOc2cccc(c2)-c2ccnc(n2)Nc2cccc(c2)C1 [ZOTIRACICLIB]
- Kd [1]: 0.286 µM (active)
- Kd [2]: > 30 µM (inactive)
- Kd [3]: > 30 µM (inactive)
- Kd [4]: > 30 µM (inactive)
- Kd [5]: > 30 µM (inactive)
- Kd [6]: > 30 µM (inactive)

Compound: CC(=O)c1cnc2ccc(-c3cc(Cl)c(O)c(Cl)c3)nc2c1N[C@H]1CC[C@H](CN(C)C)CC1
- Kd [1]: 0.012 µM (active)
- Kd [2]: > 30 µM (inactive)
- Kd [3]: > 30 µM (inactive)
- Kd [4]: > 30 µM (inactive)
- Kd [5]: > 30 µM (inactive)
- Kd [6]: > 30 µM (inactive)

Compound: Cc1cc(Nc2ncc(Cl)c(Nc3ccccc3S(=O)(=O)C(C)C)n2)c(OC(C)C)cc1C1CCNCC1 [CERITINIB]
- Kd [1]: > 30 µM (inactive)
- Kd [2]: > 30 µM (inactive)
- Kd [3]: > 30 µM (inactive)
- Kd [4]: > 30 µM (inactive)
- Kd [5]: > 30 µM (inactive)
- Kd [6]: > 30 µM (inactive)

Compound: N#CC1(c2ccc(NC(=O)c3cccnc3NCc3ccncc3)cc2)CCCC1 [RIVOCERANIB]
- Kd [1]: > 30 µM (inactive)
- Kd [2]: > 30 µM (inactive)
- Kd [3]: > 30 µM (inactive)
- Kd [4]: > 30 µM (inactive)
- Kd [5]: > 30 µM (inactive)
- Kd [6]: > 30 µM (inactive)

Compound: CC(C)c1cc(CNc2nc(Nc3cc(C4CC4)[nH]n3)cc(N3CCN(C)CC3)n2)on1 [XL-228]
- Kd [1]: 0.08 µM (active)
- Kd [2]: > 30 µM (inactive)
- Kd [3]: > 30 µM (inactive)
- Kd [4]: > 30 µM (inactive)
- Kd [5]: 0.045 µM (active)
- Kd [6]: > 30 µM (inactive)

Compound: Cc1cc(Nc2ncnc3ccc(NC4=NC(C)(C)CO4)cc23)ccc1Oc1ccn2ncnc2c1 [TUCATINIB]
- Kd [1]: > 30 µM (inactive)
- Kd [2]: > 30 µM (inactive)
- Kd [3]: > 30 µM (inactive)
- Kd [4]: > 30 µM (inactive)
- Kd [5]: > 30 µM (inactive)
- Kd [6]: > 30 µM (inactive)

Compound: CCS(=O)(=O)c1cccc(-c2cc(C(=O)NC3CCN(C)CC3)c(C)c3[nH]c4ncc(C)cc4c23)c1 [TAK-901]
- Kd [1]: 0.027 µM (active)
- Kd [2]: 0.705 µM (active)
- Kd [3]: > 30 µM (inactive)
- Kd [4]: > 30 µM (inactive)
- Kd [5]: 0.282 µM (active)
- Kd [6]: > 30 µM (inactive)

Compound: O=C(Cc1ccc(-c2ccc(OCCN3CCOCC3)cc2)cn1)NCc1ccccc1 [TIRBANIBULIN]
- Kd [1]: > 30 µM (inactive)
- Kd [2]: > 30 µM (inactive)
- Kd [3]: > 30 µM (inactive)
- Kd [4]: > 30 µM (inactive)
- Kd [5]: > 30 µM (inactive)
- Kd [6]: > 30 µM (inactive)

Compound: COc1cc2ncnc(Oc3cccc(NC(=O)Nc4cc(C(C)(C)C(F)(F)F)on4)c3)c2cc1OC [CEP-32496]
- Kd [1]: > 30 µM (inactive)
- Kd [2]: > 30 µM (inactive)
- Kd [3]: > 30 µM (inactive)
- Kd [4]: > 30 µM (inactive)
- Kd [5]: > 30 µM (inactive)
- Kd [6]: > 30 µM (inactive)

Compound: CCS(=O)(=O)N1CCN(c2ccc(Nc3ncc(C(N)=O)c(NC4CC4)n3)cc2)CC1 [Cerdulatinib Hydrochloride]
- Kd [1]: > 30 µM (inactive)
- Kd [2]: > 30 µM (inactive)
- Kd [3]: > 30 µM (inactive)
- Kd [4]: > 30 µM (inactive)
- Kd [5]: > 30 µM (inactive)
- Kd [6]: 0.032 µM (active)

Compound: NC1(c2ccc(-c3nc4ccn5c(=O)[nH]nc5c4cc3-c3ccccc3)cc2)CCC1 [MK-2206]
- Kd [1]: > 30 µM (inactive)
- Kd [2]: > 30 µM (inactive)
- Kd [3]: > 30 µM (inactive)
- Kd [4]: > 30 µM (inactive)
- Kd [5]: > 30 µM (inactive)
- Kd [6]: > 30 µM (inactive)

Compound: Cc1nc2cc(-c3nn(C(C)C)c4ncnc(N)c34)ccc2o1
- Kd [1]: > 30 µM (inactive)
- Kd [2]: > 30 µM (inactive)
- Kd [3]: > 30 µM (inactive)
- Kd [4]: > 30 µM (inactive)
- Kd [5]: > 30 µM (inactive)
- Kd [6]: > 30 µM (inactive)

Compound: CO[C@H]1C[C@@H]2CC[C@@H](C)[C@@](O)(O2)C(=O)C(=O)N2CCCC[C@H]2C(=O)O[C@H]([C@H](C)C[C@@H]2CC[C@@H](OP(C)(C)=O)[C@H](OC)C2)CC(=O)[C@H](C)/C=C(\C)[C@@H](O)[C@@H](OC)C(=O)[C@H](C)C[C@H](C)/C=C/C=C/C=C/1C [RIDAFOROLIMUS]
- Kd [1]: > 30 µM (inactive)
- Kd [2]: > 30 µM (inactive)
- Kd [4]: > 30 µM (inactive)
- Kd [5]: > 30 µM (inactive)
- Kd [6]: > 30 µM (inactive)

Compound: COCC(=O)NC/C=C/c1ccc2ncnc(Nc3ccc(Oc4ccc(C)nc4)c(C)c3)c2c1 [CP-724714]
- Kd [1]: > 30 µM (inactive)
- Kd [2]: > 30 µM (inactive)
- Kd [3]: > 30 µM (inactive)
- Kd [4]: > 30 µM (inactive)
- Kd [5]: > 30 µM (inactive)
- Kd [6]: > 30 µM (inactive)

Compound: Cc1nc(NC(=O)N2CCC[C@H]2C(N)=O)sc1-c1ccnc(C(C)(C)C(F)(F)F)c1 [ALPELISIB]
- Kd [1]: > 30 µM (inactive)
- Kd [2]: > 30 µM (inactive)
- Kd [3]: > 30 µM (inactive)
- Kd [4]: > 30 µM (inactive)
- Kd [5]: > 30 µM (inactive)
- Kd [6]: > 30 µM (inactive)

Compound: CNC(=O)c1nn(C)c2c1C(C)(C)Cc1cnc(Nc3ccc(N4CCN(C)CC4)cc3)nc1-2 [MILCICLIB]
- Kd [1]: 0.291 µM (active)
- Kd [2]: > 30 µM (inactive)
- Kd [3]: > 30 µM (inactive)
- Kd [4]: > 30 µM (inactive)
- Kd [5]: > 30 µM (inactive)
- Kd [6]: > 30 µM (inactive)

Compound: Cn1ncc(Cl)c1-c1cc(C(=O)N[C@H](CN)Cc2ccc(F)c(F)c2)oc1Cl [UPROSERTIB]
- Kd [1]: > 30 µM (inactive)
- Kd [2]: > 30 µM (inactive)
- Kd [3]: > 30 µM (inactive)
- Kd [4]: > 30 µM (inactive)
- Kd [5]: > 30 µM (inactive)
- Kd [6]: > 30 µM (inactive)

Compound: C[C@@H](Oc1cc(C(=O)Nc2ccc(C(=O)N3CCN(C)CC3)cc2)nnc1N)c1c(Cl)ccc(F)c1Cl
- Kd [1]: > 30 µM (inactive)
- Kd [2]: > 30 µM (inactive)
- Kd [4]: > 30 µM (inactive)
- Kd [5]: > 30 µM (inactive)
- Kd [6]: > 30 µM (inactive)

Compound: Cn1cc(-c2cnn3c(N)c(Br)c([C@@H]4CCCNC4)nc23)cn1 [SCH-900776]
- Kd [1]: > 30 µM (inactive)
- Kd [2]: > 30 µM (inactive)
- Kd [4]: > 30 µM (inactive)
- Kd [5]: > 30 µM (inactive)
- Kd [6]: > 30 µM (inactive)
